The results in this text go back to US12297235B2, “Synthetic peptide compounds and methods of use” (REALTA HOLDINGS, LLC, priority 2015, dated 2025).

Square brackets hold non-standard residues; d marks the D form. Peptide text beside a SMILES is read from it. PEG24 = NCCOCCOCCOCCOCCOCCOCCOCCOCCOCCOCCOCCOCCOCCOCCOCCOCCOCCOCCOCCOCCOCCOCCOCCOCCC(=O)O; Sar = CNCC(=O)O

This series in a line: Solubility in water. In kind it is physicochemical. Conditions: Table 7, PEGylated and Sar/Ala substitution peptides.
`CC[C@H](C)[C@H](N)C(=O)N[C@@H](C)C(=O)N[C@@H](CC(C)C)C(=O)N[C@H](C(=O)N[C@@H](CC(C)C)C(=O)N[C@@H](C)C(=O)N1CCC[C@H]1C(=O)N[C@H](C(=O)N[C@@H](CS)C(=O)N[C@@H](CS)C(=O)N[C@@H](CCC(N)=O)C(=O)N[C@@H](C)C(=O)N[C@@H](CCCNC(=N)N)C(=O)N[C@@H](C)C(=O)N[C@@H](C)C(=O)NCCOCCOCCOCCOCCOCCOCCOCCOCCOCCOCCOCCOCCOCCOCCOCCOCCOCCOCCOCCOCCOCCOCCOCCOCCC(=O)O)[C@@H](C)CC)[C@@H](C)CC` [E6AE12A-dPEG24] (H-IALILAPICCQARAA[PEG24]-OH): the Solubility in water result is given as “Yes”. With `CC[C@H](C)[C@H](N)C(=O)N[C@@H](C)C(=O)N[C@@H](CC(C)C)C(=O)N[C@H](C(=O)N[C@@H](CC(C)C)C(=O)N[C@@H](CCC(=O)O)C(=O)N1CCC[C@H]1C(=O)N[C@H](C(=O)N[C@@H](CS)C(=O)N[C@@H](CS)C(=O)N[C@@H](CCC(N)=O)C(=O)N[C@@H](CCC(=O)O)C(=O)N[C@@H](CCCNC(=N)N)C(=O)N(C)CC(=O)N[C@@H](C)C(=O)NCCOCCOCCOCCOCCOCCOCCOCCOCCOCCOCCOCCOCCOCCOCCOCCOCCOCCOCCOCCOCCOCCOCCOCCOCCC(=O)O)[C@@H](C)CC)[C@@H](C)CC` [PA-A14Sar-dPEG24], the Solubility in water result is given as “Yes”. The same measure for `CC[C@H](C)[C@H](N)C(=O)N[C@@H](C)C(=O)N[C@@H](CC(C)C)C(=O)N[C@H](C(=O)N[C@@H](CC(C)C)C(=O)N[C@@H](CCC(=O)O)C(=O)N1CCC[C@H]1C(=O)N[C@H](C(=O)N(C)CC(=O)N[C@@H](C)C(=O)N[C@@H](CCC(N)=O)C(=O)N[C@@H](CCC(=O)O)C(=O)N[C@@H](CCCNC(=N)N)C(=O)N[C@@H](C)C(=O)N[C@@H](C)C(=O)O)[C@@H](C)CC)[C@@H](C)CC` [PA-C9SarC10A] (H-IALILEPI[Sar]AQERAA-OH): “Yes”; for `CC[C@H](C)[C@H](N)C(=O)N[C@@H](C)C(=O)N[C@@H](CC(C)C)C(=O)N[C@H](C(=O)N[C@@H](CC(C)C)C(=O)N[C@@H](CCC(=O)O)C(=O)N1CCC[C@H]1C(=O)N[C@H](C(=O)N(C)CC(=O)N[C@@H](CCC(N)=O)C(=O)N[C@@H](CCC(=O)O)C(=O)N[C@@H](CCCNC(=N)N)C(=O)N[C@@H](C)C(=O)N[C@@H](C)C(=O)O)[C@@H](C)CC)[C@@H](C)CC` [PA-C9SarD10] (H-IALILEPI[Sar]QERAA-OH): “Yes”; for `CC[C@H](C)[C@H](N)C(=O)N[C@@H](C)C(=O)N[C@@H](CC(C)C)C(=O)N[C@H](C(=O)N[C@@H](CC(C)C)C(=O)N(C)CC(=O)N1CCC[C@H]1C(=O)N[C@H](C(=O)N[C@@H](CS)C(=O)N[C@@H](CS)C(=O)N[C@@H](CCC(N)=O)C(=O)N[C@@H](CCC(=O)O)C(=O)N[C@@H](CCCNC(=N)N)C(=O)N[C@@H](C)C(=O)N[C@@H](C)C(=O)NCCOCCOCCOCCOCCOCCOCCOCCOCCOCCOCCOCCOCCOCCOCCOCCOCCOCCOCCOCCOCCOCCOCCOCCOCCC(=O)O)[C@@H](C)CC)[C@@H](C)CC` [PA-E6Sar-dPEG24]: “Yes”. The same measure for `CC[C@H](C)[C@H](N)C(=O)N[C@@H](C)C(=O)N[C@@H](CC(C)C)C(=O)N[C@H](C(=O)N[C@@H](CC(C)C)C(=O)N[C@@H](CCC(=O)O)C(=O)N(C)CC(=O)N[C@H](C(=O)N(C)CC(=O)N[C@@H](CS)C(=O)N[C@@H](CCC(N)=O)C(=O)N[C@@H](CCC(=O)O)C(=O)N[C@@H](CCCNC(=N)N)C(=O)N[C@@H](C)C(=O)N[C@@H](C)C(=O)O)[C@@H](C)CC)[C@@H](C)CC` [PA-P7SarC9Sar, IALILE(Sar)I(Sar)CQERAA] (H-IALILE[Sar]I[Sar]CQERAA-OH): “Yes”. Take `CC[C@H](C)[C@H](N)C(=O)N[C@@H](C)C(=O)N[C@@H](CC(C)C)C(=O)N[C@H](C(=O)N[C@@H](CC(C)C)C(=O)N[C@@H](CCC(=O)O)C(=O)N1CCC[C@H]1C(=O)N[C@H](C(=O)N[C@@H](CS)C(=O)N[C@@H](CS)C(=O)N(C)CC(=O)N[C@@H](CCC(=O)O)C(=O)N[C@@H](CCCNC(=N)N)C(=O)N[C@@H](C)C(=O)N[C@@H](C)C(=O)NCCOCCOCCOCCOCCOCCOCCOCCOCCOCCOCCOCCOCCOCCOCCOCCOCCOCCOCCOCCOCCOCCOCCOCCOCCC(=O)O)[C@@H](C)CC)[C@@H](C)CC` [PA-Q11Sar-dPEG24]: the Solubility in water entry is “Yes”. Consider `CC[C@H](C)[C@H](N)C(=O)N[C@@H](C)C(=O)N[C@@H](CC(C)C)C(=O)N[C@H](C(=O)N[C@@H](CC(C)C)C(=O)N[C@@H](CCC(=O)O)C(=O)N1CCC[C@H]1C(=O)N[C@H](C(=O)N[C@@H](CS)C(=O)N[C@@H](CS)C(=O)N[C@@H](CCC(N)=O)C(=O)N[C@@H](CCC(=O)O)C(=O)N(C)CC(=O)N[C@@H](C)C(=O)N[C@@H](C)C(=O)NCCOCCOCCOCCOCCOCCOCCOCCOCCOCCOCCOCCOCCOCCOCCOCCOCCOCCOCCOCCOCCOCCOCCOCCOCCC(=O)O)[C@@H](C)CC)[C@@H](C)CC` [PA-R13Sar-dPEG24], for which the Solubility in water entry was “Yes”.

Take `CC[C@H](C)[C@H](N)C(=O)N[C@@H](C)C(=O)N[C@@H](CC(C)C)C(=O)N[C@H](C(=O)N[C@@H](CC(C)C)C(=O)N[C@@H](CCC(=O)O)C(=O)N1CCC[C@H]1C(=O)N[C@H](C(=O)N(C)CC(=O)N[C@@H](CS)C(=O)N[C@@H](CCC(N)=O)C(=O)N[C@@H](CCC(=O)O)C(=O)N[C@@H](CCCNC(=N)N)C(=O)N(C)CC(=O)N[C@@H](C)C(=O)O)[C@@H](C)CC)[C@@H](C)CC` [Peptide A14SarC9Sar] (H-IALILEPI[Sar]CQER[Sar]A-OH): the Solubility in water entry is given as “No”. Take `CC[C@H](C)[C@H](N)C(=O)N[C@@H](C)C(=O)N[C@@H](CC(C)C)C(=O)N[C@H](C(=O)N[C@@H](CC(C)C)C(=O)N[C@@H](CCC(=O)O)C(=O)N(C)CC(=O)N[C@H](C(=O)N[C@@H](CS)C(=O)N[C@@H](CS)C(=O)N[C@@H](CCC(N)=O)C(=O)N[C@@H](CCC(=O)O)C(=O)N[C@@H](CCCNC(=N)N)C(=O)N(C)CC(=O)N[C@@H](C)C(=O)O)[C@@H](C)CC)[C@@H](C)CC` [Peptide A14SarP7Sar, IALILE(Sar)ICCQER(Sar)A] (H-IALILE[Sar]ICCQER[Sar]A-OH; N-terminus and C-terminus assumed): the Solubility in water result is “Yes”.

As to `CC[C@H](C)[C@H](N)C(=O)N[C@@H](C)C(=O)N[C@@H](CC(C)C)C(=O)N[C@H](C(=O)N[C@@H](CC(C)C)C(=O)N[C@@H](C)C(=O)N1CCC[C@H]1C(=O)N[C@H](C(=O)N(C)CC(=O)N[C@@H](CS)C(=O)N[C@@H](CCC(N)=O)C(=O)N[C@@H](C)C(=O)N[C@@H](CCCNC(=N)N)C(=O)N[C@@H](C)C(=O)N[C@@H](C)C(=O)O)[C@@H](C)CC)[C@@H](C)CC` [Peptide E6AE12AC9Sar] (H-IALILAPI[Sar]CQARAA-OH), the Solubility in water result is “No”. `CC[C@H](C)[C@H](N)C(=O)N[C@@H](C)C(=O)N[C@@H](CC(C)C)C(=O)N[C@H](C(=O)N[C@@H](CC(C)C)C(=O)N[C@@H](C)C(=O)N(C)CC(=O)N[C@H](C(=O)N[C@@H](CS)C(=O)N[C@@H](CS)C(=O)N[C@@H](CCC(N)=O)C(=O)N[C@@H](C)C(=O)N[C@@H](CCCNC(=N)N)C(=O)N[C@@H](C)C(=O)N[C@@H](C)C(=O)O)[C@@H](C)CC)[C@@H](C)CC` [Peptide E6AE12AP7Sar] (H-IALILA[Sar]ICCQARAA-OH; N-terminus and C-terminus assumed): the Solubility in water entry was “Yes”. On to `CC[C@H](C)[C@H](N)C(=O)N[C@@H](C)C(=O)N[C@@H](CC(C)C)C(=O)N[C@H](C(=O)N[C@@H](CC(C)C)C(=O)N(C)CC(=O)N1CCC[C@H]1C(=O)N[C@H](C(=O)N(C)CC(=O)N[C@@H](CS)C(=O)N[C@@H](CCC(N)=O)C(=O)N[C@@H](CCC(=O)O)C(=O)N[C@@H](CCCNC(=N)N)C(=O)N[C@@H](C)C(=O)N[C@@H](C)C(=O)O)[C@@H](C)CC)[C@@H](C)CC` [Peptide E6SarC9Sar, IALIL(Sar)PI(Sar)CQERAA] (H-IALIL[Sar]PI[Sar]CQERAA-OH), for which the Solubility in water entry was “Yes”.

Take `CC[C@H](C)[C@H](N)C(=O)N[C@@H](C)C(=O)N[C@@H](CC(C)C)C(=O)N[C@H](C(=O)N[C@@H](CC(C)C)C(=O)N(C)CC(=O)N(C)CC(=O)N[C@H](C(=O)N[C@@H](CS)C(=O)N[C@@H](CS)C(=O)N[C@@H](CCC(N)=O)C(=O)N[C@@H](CCC(=O)O)C(=O)N[C@@H](CCCNC(=N)N)C(=O)N[C@@H](C)C(=O)N[C@@H](C)C(=O)O)[C@@H](C)CC)[C@@H](C)CC` [Peptide E6SarP7Sar] (H-IALIL[Sar][Sar]ICCQERAA-OH; N-terminus and C-terminus assumed): the Solubility in water entry is listed as “Yes”. Take `CC[C@H](C)[C@H](N)C(=O)N[C@@H](C)C(=O)N[C@@H](CC(C)C)C(=O)N[C@H](C(=O)N[C@@H](CC(C)C)C(=O)N[C@@H](CCC(=O)O)C(=O)N1CCC[C@H]1C(=O)N[C@H](C(=O)N(C)CC(=O)N[C@@H](CS)C(=O)N(C)CC(=O)N[C@@H](CCC(=O)O)C(=O)N[C@@H](CCCNC(=N)N)C(=O)N[C@@H](C)C(=O)N[C@@H](C)C(=O)O)[C@@H](C)CC)[C@@H](C)CC` [Peptide Q11SarC9Sar] (H-IALILEPI[Sar]C[Sar]ERAA-OH): the Solubility in water entry was “Yes”. Consider `CC[C@H](C)[C@H](N)C(=O)N[C@@H](C)C(=O)N[C@@H](CC(C)C)C(=O)N[C@H](C(=O)N[C@@H](CC(C)C)C(=O)N[C@@H](CCC(=O)O)C(=O)N(C)CC(=O)N[C@H](C(=O)N[C@@H](CS)C(=O)N[C@@H](CS)C(=O)N(C)CC(=O)N[C@@H](CCC(=O)O)C(=O)N[C@@H](CCCNC(=N)N)C(=O)N[C@@H](C)C(=O)N[C@@H](C)C(=O)O)[C@@H](C)CC)[C@@H](C)CC` [Peptide Q11SarP7Sar, IALILE(Sar)ICC(Sar)ERAA] (H-IALILE[Sar]ICC[Sar]ERAA-OH; N-terminus and C-terminus assumed), for which the Solubility in water result is reported as “Yes”. The same measure for `CC[C@H](C)[C@H](N)C(=O)N[C@@H](C)C(=O)N[C@@H](CC(C)C)C(=O)N[C@H](C(=O)N[C@@H](CC(C)C)C(=O)N[C@@H](CCC(=O)O)C(=O)N1CCC[C@H]1C(=O)N[C@H](C(=O)N(C)CC(=O)N[C@@H](CS)C(=O)N[C@@H](CCC(N)=O)C(=O)N[C@@H](CCC(=O)O)C(=O)N(C)CC(=O)N[C@@H](C)C(=O)N[C@@H](C)C(=O)O)[C@@H](C)CC)[C@@H](C)CC` [Peptide R13SarC9Sar] (H-IALILEPI[Sar]CQE[Sar]AA-OH): “No”.
